Here are results for 1 molecule from patent US20190298720A1, “USE OF SRC FAMILY KINASE INHIBITOR IN RIBOSOMAL DISORDER” (BIOXCEL CORPORATION, priority 2016, published 2019).

Each structure is given as a SMILES string. Entries after “also recorded” stand apart in the source; their conditions may differ.

The subject of experiment [1] is RPS19 knock-down zebrafish embryos. The experiment is described as follows: Erythropoiesis in a zebrafish model of DBA using RPS19 morpholino (o-dianisidine staining). The format is in vivo. As to conditions: for % improvement of erythropoiesis / % intensity of staining: injected 1 cell stage & aqueous exposure, RPS19 Mo. The protocol: To evaluate the effect of Saracatinib, a Src kinase inhibitor (Lyn kinase) on improving erythropoiesis in a zebrafish model of DBA using RPS19 morpholino.
Materials: Zebrafish (One celled stage), RPS19 morpholino (1 ng) and standard control morpholino were dissolved in ultrapure water. Saracatinib (Selleckchem; Cat no. 51006) was dissolved in 1% DMSO to achieve […], 50 μM and 100 μM concentrations. 0-dianisidine staining solution was made by dissolving 100 mg of 0-dianisidine in 70 mL ethanol, Acetate buffer (49 mL, 0.1 M Sodium acetate and 51 mL, 0.1 M acetic acid), 3% Hydrogen peroxide and ultrapure water; Phosphate buffer saline (PBS), Para formaldehyde (PFA), Tricaine methane sulfonate (ms-222) and Bleach solution (equal parts of 1% Potassium hydroxide and 3% Hydrogen peroxide) were used in the experimental procedures.
(i) Control Mo, Egg water represents the zebrafish embryos which were injected with standard control morpholino, and 1% DMSO thriving in egg water, (ii) RPS19 Mo, Egg water represents wild type zebrafish embryos microinjected with 1 ng of RPS19 morpholino, and 1% DMSO; thriving in egg water, and (iii) RPS19 Mo+Saracatinib injected 1 cell stage and aqueous exposure represents zebrafish embryos which were microinjected with RPS19 morpholino and where Saracatinib was also microinjected at 1-cell stage along with adding Saracatinib in the aqueous phase or egg water.
The wild type zebrafish with egg water were placed in separate wells and were microinjected with standard control morpholino and 1% DMSO, which acted as normal control (Control Mo, Egg water). The wild type zebrafish eggs were injected with 1 ng of RPS19 morpholino and 1% DMSO at 1-cell stage (RPS19 Mo, Egg water), and were incubated at 28.5° C. for 96 hours. Saracatinib was microinjected in the zebra fish at one cell stage and also exposed in the media (aqueous exposure) to achieve optimal concentrations of 25 μM, 50 μM and 100 μM (RPS19 Mo+Saracatinib injected 1 cell stage and aqueous exposure). The experiment was carried out in the 6-well plates for control (Control Mo, Egg water); morpholinos group (RPS19 Mo, Egg water) and Saracatinib treatment group (RPS19 Mo+Saracatinib injected 1 cell stage and aqueous exposure) respectively. The incubation of the zebrafish in various groups was carried out up to 96 hours at 28.5° C. and the embryos were visually observed for any phenotypic changes or mortality. The embryos were euthanized at the end of the study by using tricaine methane sulfonate (ms-222), and fixed in 4% PFA for 2 hours at room temperature. After fixing and washing the embryos thoroughly (3 times) in 1×PBS, o-dianisidine staining was carried out for 30 minutes at room temperature in the dark to assess haemoglobin concentration. Embryos were then washed 3 times in 1×PBS and incubated in bleach solution for 20 minutes at room temperature. Further washing of the embryos were also carried out in 1×PBS to avoid any unnecessary staining. Quantitation of o-dianisidine staining in zebrafish embryos.
Haemoglobin quantification/total amount of the o-dianisidine staining on total embryo was calculated by using Image J software. The total embryo area and the intensity was noted by the software, by manually tracing the exact area of the embryo. The ratios of the intensity and the total embryo area was thus used to calculate the intensity per unit area which is then compared across groups (Control Mo, Egg water; RPS19 Mo, Egg water and RPS19 Mo+Saracatinib injected 1 cell stage and aqueous exposure). Percent intensity of staining of embryos was considered to be proportional to the haemoglobin concentration in each embryo and thus % improvement or recovery of erythropoiesis by administration of Saracatinib was further calculated.

The subject of a further experiment is Lyn kinase. The experiment is described as follows: Lyn kinase activity in RPS19 knock-down zebrafish embryos. The format is in vivo. As to conditions: 25 μM, 50 μM and 100 μM.
The test system of experiment [2] is Id1 expression in lung cancer cell lines. Particulars: cited from earlier work.

As for `CN1CCN(CCOc2cc(OC3CCOCC3)c3c(Nc4c(Cl)ccc5c4OCO5)ncnc3c2)CC1` [Saracatinib, N-(5-chloro-1,3-benzodioxol-4-yl)-7-[2-(4-methyl-1-piperazinyl)ethoxy]-5-[(tetrahydro-2H-pyran-4-yl)oxy]-4-quinazolinamine], the “Erythropoiesis / erythropoietic defect (in words)” value in experiment [1] (25 μM, 50 μM and 100 μM, compared to RPS19 injected morpholinos, 96 hpf, o-dianisidine staining) was “rescue in haemopoietic defect; also recorded: dose related improvement in erythropoiesis; also recorded: improvement in the erythropoietic defect”. Moreover, the “% improvement of erythropoiesis” value in experiment [1] (Saracatinib 25 μM, 96 hpf) was 10.49%; in experiment [1] (Saracatinib 50 μM, 96 hpf), 36.75%; in experiment [1] (Saracatinib 100 μM, 96 hpf), 19.82%. Also, the “% intensity of staining” value in experiment [1] (Saracatinib 25 μM, 96 hpf) was 2.646%; in experiment [1] (Saracatinib 50 μM, 96 hpf), 3.557%; in experiment [1] (Saracatinib 100 μM, 96 hpf), 3.18%. The “Haemoglobin concentration (in words)” value in experiment [1] (compared to zebrafish treated with RPS19 morpholino) is recorded as “increased haemoglobin concentration”. Further, the Lyn kinase activity result with Lyn kinase is recorded as “decrease in the Lyn kinase activity”. The Id1 expression result in experiment [2] is reported as “downregulates the Id1 expression”.
